Measured values taken from PMC11320734 (ACS Pharmacology & Translational Science, 2024).
Where two headings read alike, the source gives them in different places.

Experiments:
[1] = biological target: T1, human Q63R variant CB2R (Homo sapiens, UniProt P34972, Q63R); assay: cAMP assay in CHO cells; assay type: cell-based; settings: mean ± SD
T1 construct: expressed in transfected cells; host or cells: CHO cells

[2] = biological target: T2, rat CB2R (Rattus norvegicus, UniProt Q9QZN9); assay: cAMP assay in CHO cells; assay type: cell-based; settings: mean ± SD
T2 construct: expressed in transfected cells; host or cells: CHO cells
T2 sequence (Q9QZN9 whole entry): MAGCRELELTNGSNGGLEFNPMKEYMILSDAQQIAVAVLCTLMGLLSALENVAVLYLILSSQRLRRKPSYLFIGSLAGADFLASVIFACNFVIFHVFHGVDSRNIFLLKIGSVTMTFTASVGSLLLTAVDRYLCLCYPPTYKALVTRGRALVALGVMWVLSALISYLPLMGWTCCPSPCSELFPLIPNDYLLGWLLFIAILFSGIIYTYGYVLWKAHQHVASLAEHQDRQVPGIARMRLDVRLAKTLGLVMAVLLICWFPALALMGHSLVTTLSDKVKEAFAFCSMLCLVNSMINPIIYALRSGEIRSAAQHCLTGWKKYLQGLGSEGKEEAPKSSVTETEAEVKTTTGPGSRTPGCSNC

[3] = test system: 80 additional receptors; assay: CEREP off-target binding screen
[4] = biological target: ABHD12 (Homo sapiens, UniProt Q8N2K0); assay: Endocannabinoid target profiling: ABHD12; assay type: biochemical
Chain of ABHD12 (Q8N2K0 whole entry, species assumed): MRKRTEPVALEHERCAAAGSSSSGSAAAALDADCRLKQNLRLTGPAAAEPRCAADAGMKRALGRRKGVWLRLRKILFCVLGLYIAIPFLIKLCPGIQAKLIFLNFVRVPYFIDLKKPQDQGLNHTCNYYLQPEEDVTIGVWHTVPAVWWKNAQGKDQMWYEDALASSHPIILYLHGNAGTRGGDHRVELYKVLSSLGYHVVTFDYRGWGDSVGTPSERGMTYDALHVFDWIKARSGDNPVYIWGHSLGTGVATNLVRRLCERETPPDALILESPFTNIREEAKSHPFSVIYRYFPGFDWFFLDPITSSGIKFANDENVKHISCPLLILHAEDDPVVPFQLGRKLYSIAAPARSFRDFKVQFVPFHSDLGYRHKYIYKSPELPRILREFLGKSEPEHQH

[5] = biological target: GPR55 (Homo sapiens, UniProt Q9Y2T6); assay: Endocannabinoid target profiling: GPR55; settings: Table S1; read-out: GPR55 (Ki, IC50)
Chain of GPR55 (Q9Y2T6 whole entry, species assumed): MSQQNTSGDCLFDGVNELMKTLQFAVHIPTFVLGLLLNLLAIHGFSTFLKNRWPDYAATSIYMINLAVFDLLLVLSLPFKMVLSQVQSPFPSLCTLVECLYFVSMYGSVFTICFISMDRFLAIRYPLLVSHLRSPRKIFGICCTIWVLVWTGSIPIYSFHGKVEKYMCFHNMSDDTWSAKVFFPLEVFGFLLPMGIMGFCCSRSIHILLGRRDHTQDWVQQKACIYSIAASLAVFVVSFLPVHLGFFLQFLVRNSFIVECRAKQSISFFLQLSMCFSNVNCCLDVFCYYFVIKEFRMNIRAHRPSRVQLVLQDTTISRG

[6] = pKa; assay type: physicochemical; settings: basic nitrogen N1 of the pyrazole ring
[7] = Aqueous stability assay (ASTA); assay type: physicochemical
Description: The stability of the compound was assessed using the aqueous stability assay (ASTA), as previously described.[37] In short, aqueous solutions of RNB-61 were prepared at 5 different pH values (range 1–10), added to incubation plates and shaken for 10 min at 37 °C. Solutions were transferred to a filter plate (Millipore MSGVN2250, pore size 0.22 μm) and filtered into V- bottom plates (ABGene, AB-0800) prior to heat-sealing. The procedure was repeated, increasing the 37 °C incubation time by 2 h. Samples were analyzed by HPLC at 0 and 2 h. A compound was classified as unstable if <90% of the initial concentration was detected after 2 h.

[8] = Microsomal clearance; assay type: in vitro ADME; settings: mouse, mouse microsomes; Table 3
Description: The hepatocyte clearance assay was performed as previously described.[39] For mice hepatocytes, the suspension cultures were either freshly prepared by liver perfusion or prepared from cryopreserved hepatocyte batches (pooled C57BL6 mouse hepatocytes were purchased from BioreclamationIVT (NY, USA)). For human hepatocytes, commercially available, pooled (5–20 donors), cryopreserved samples from nontransplantable liver tissues were used. For the suspension cultures, Nunc U96 PP-0.5 mL (Nunc Natural, 267245) plates were used, which were incubated in a Thermo Forma incubator from Fischer Scientific (Wohlen, Switzerland) equipped with shakers from Variomag Teleshake (Sterico, Wangen, Switzerland) for maintaining cell dispersion. The cell culture medium was William’s media supplemented with glutamine, antibiotics (100 IU/mL Penicillin-Streptomycin, Gibco), insulin, dexamethasone, and 10% fetal calf serum (FCS). Incubations of a test compound at 1 μM test concentration in suspension cultures of 1 × 10^6 cells mL^–1 (∼1 μg μL^–1 protein concentration) were performed in 96-well plates and shaken at 900 rpm for up to 2 h in a 5% CO2 atmosphere at 37 °C. After 3, 6, 10, 20, 40, 60, and 120 min, a 100 μL cell suspension in each well was quenched with 200 μL methanol containing an internal standard. Samples were then cooled and centrifuged before analysis by LC-MS/MS. […]

[9] = test system: renal I/R-induced acute kidney injury; assay: Ischemia/reperfusion (I/R) model of acute kidney injury; assay type: in vivo, C57BL/6 mice
Description: In the ischemia/reperfusion (I/R) model of acute kidney injury (AKI),[47],[48] the compounds were administered orally by gavage to C57BL/6 mice 30 min before ischemia obtained by clamping both renal arteries and veins for 25 min, followed by 24 h of reperfusion. Mice were anesthetized using xylazine (10 mg kg^–1)/ketamine (100 mg kg^–1) injected intraperitoneally. Sham treated mice were treated identically except for the temporary closure of the renal vessels. After 24 h, under reanesthesia, plasma was taken for biomarker analysis. Thereafter, mice still in deep anesthesia were sacrificed by cervical dislocation. Creatinine, BUN (blood urea nitrogen), NGAL (neutrophil gelatinase-associated lipocalin), osteopontin, and KIM1 (kidney injury molecule-1) levels were determined using the following commercially available standard assays: creatinine: Roche Diagnostics 03263991, BUN: Roche Diagnostics 04460715, NGAL: BioPorto, Kit046 + Kit042, osteopontin: R&D Systems, MOST00, KIM-1: Abnova, KA1064. To assess fibrotic effects, we used the unilateral ureteral obstruction (UOO) model in Sprague–Dawley rats.[49] For the UOO model, rats were sacrificed after 5, 8, and 11 days and the percentage of PicroSirius Red positive areas (indicator of collagen III–I deposition) were measured in 4 μm histological cross sections of the kidney after 2% paraformaldehyde perfusion fixation and paraffin embedding. The extend of kidney fibrosis was quantified based on PicroSirius Red staining of 10 renal sections about 1 mm apart from each kidney. The collagen–III-I-positive pixel counts were determined in the cortical aspect of each kidney section from 10 optical fields using a 40× objective. As the total area analyzed was identical for all kidneys under investigation, the absolute number of pixels was used as the relevant readout. Vehicle treated animals received saline gavage only. The details of PicroSirius Red staining were previously described.[22]

[10] = biological target: human CB2R (Homo sapiens, UniProt P34972); assay: Competition binding assay with [3H]-CP55940, HEK cell membranes
Chain of human CB2R (P34972 whole entry, the tested form may be a part): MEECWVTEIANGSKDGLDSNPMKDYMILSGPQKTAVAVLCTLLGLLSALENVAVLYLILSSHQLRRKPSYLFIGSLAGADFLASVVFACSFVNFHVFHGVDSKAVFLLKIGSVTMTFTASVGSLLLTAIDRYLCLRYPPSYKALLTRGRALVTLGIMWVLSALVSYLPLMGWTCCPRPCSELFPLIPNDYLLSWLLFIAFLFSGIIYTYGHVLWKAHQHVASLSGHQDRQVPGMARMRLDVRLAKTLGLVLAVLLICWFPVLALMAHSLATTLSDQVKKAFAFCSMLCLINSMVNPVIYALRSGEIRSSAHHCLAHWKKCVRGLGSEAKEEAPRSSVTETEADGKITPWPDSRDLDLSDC
Description: Competition and saturation binding assays were performed using the radiolabeled CB1R/CB2R agonist [^3H]-CP55940 (PerkinElmer).
Binding reactions were terminated by vacuum filtration onto 0.5% polyethylenimine presoaked GF/B filter plates (Packard) using a Filtermate cell harvester followed by 6 brief washes with 0.3 mL/well of ice-cold wash buffer. Wash buffer comprising 50 mmol L^–1 Tris- HCl, 5 mmol L^–1 MgCl2, 2.5 mmol L^–1 EDTA, and 0.5% fatty acid-free BSA, pH 7.4. Plates were dried at 50 °C for 1 h and liquid scintillation counting was used to determine levels of bound radiolabel. IC50 values and Hill slopes were determined with a 4-parameter logistic model using ActivityBase (ID Business Solution, Guilford, UK) and pKi values were determined using the Cheng–Prusoff equation as shown below: [drawing 1] where S indicates the concentration of the substrate and Km depicts the affinity constant of the substrate.

[11] = 3 mg kg^–1 p.o., 24 h reperfusion
[12] = maximal protection at 3–30 mg kg^–1

T1 sequence (P34972 whole entry Q63R): as the sequence (P34972 whole entry, the tested form may be a part) above, with Q63R counted along it

Cn1c(C(C)(C)C)cc(=NC(=O)c2cc(C(F)(F)F)ccc2OCC(C)(C)O)n1CC1CCC1 [RNB-61]
EC50 [1]: 0.29 ± 0.07 nM
EC50 [2]: 0.13 ± 0.07 nM
binding to 80 additional receptors (significant = ≥50% of probe displacement) ([3]; 10 μM, most receptors, exception Na+ channel site 2): no significant binding
interaction with 80 additional receptor targets (significant = >50% inhibition) ([3]; up to 1 μM): no significant interaction
IC50 ([4]; Table S1, read-out: ABHD12 (Ki, IC50)): > 10000 nM
inhibition of EC hydrolysis by ABHD12 ([4]; screening concentration 10 μM): did not inhibit
IC50 [5]: > 50000 nM
pKa [6]: 7.33
pKa ([6]; read-out: pKa): 7.37
stability in aqueous solution at pH 1 ([7]; 2 h, 37 °C): 104.4 % of initial [200 nM]
stability in aqueous solution at pH 4 ([7]; 2 h, 37 °C): 102.7 % of initial [200 nM]
stability in aqueous solution at pH 6.5 ([7]; 2 h, 37 °C): 102.7 % of initial [200 nM]
stability in aqueous solution at pH 8 ([7]; 2 h, 37 °C): 100.5 % of initial [200 nM]
stability in aqueous solution at pH 10 ([7]; 2 h, 37 °C): 101.6 % of initial [200 nM]
stability in aqueous solution ([7]; 2 h at 37 °C at pH 1, 4, 6.5, 8 and 10): stable
microsomal CLint [8]: ≤ 10 µL/min/mg
effect on I/R induced plasma creatinine levels ([9]; 0.1 mg kg^–1): No significant difference
reduction of BUN compared to vehicle [9, 11]: 30%
reduction of plasma creatinine compared to vehicle [9, 11]: 48%
reduction of plasma KIM-1 compared to vehicle [9, 12]: 50%
reduction of plasma NGAL compared to vehicle [9, 12]: 39%
reduction of plasma osteopontin compared to vehicle [9, 12]: 43%
dose from which KIM-1 release is inhibited ([9]; mouse, in vivo): 0.3 mg kg^–1
dose from which NGAL release is inhibited ([9]; mouse, in vivo): 0.3 mg kg^–1
dose from which osteopontin release is inhibited ([9]; mouse, in vivo): 3 mg kg^–1
Ki [10]: 0.57 ± 0.03 nM
hCB2R selectivity ([10]; Ki hCB1R over Ki hCB2R): 6810
selectivity over hCB1R ([10]; hCB2R over hCB1R): 6,800 fold
